The record followed here is US20230104936A1, “TRPML MODULATORS” (Casma Therapeutics, Inc., priority 2019, published 2023).

Molecules are shown by their SMILES.

For the first test, the system named is TFEB. Kind of test: TFEB nuclear translocation assay, HeLa wt cells. It is filed as cell-based. Conditions: 2 hrs compound treatment, Table 1 does not say HeLa wt or TRPML1 KO. The procedure, abridged:
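Cells are plated overnight, exposed to compounds for 2 hrs at 37° C, fixed with 4% PFA, blocked, and stained overnight at 4° C with rabbit anti-TFEB. After Alexa 488 secondary and Hoechst, nuclei and a perinuclear ring are segmented to give a nuclear:ring intensity ratio and AC50.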
`C[C@H](c1cccc(F)c1N1CCCCC1)S(=O)(=O)c1ccc(S(=N)(=O)N(C)C)cc1` (single isomer, unassigned) [Compound A-895]: the concentration at half-maximal activity (AC50) was at least 10 µM.

Still in this test, the particulars now being: Homo sapiens, HeLa, 2 h, 2 hrs compound treatment, Table 1 does not say HeLa wt or TRPML1 KO.
Consider `Cc1ccc(S(=O)(=O)Cc2ccccc2N2CCC(c3ccc(Cl)cc3F)CC2)cc1` [Compound A-138, 4-(4-chloro-2-fluorophenyl)-1-(2-(tosylmethyl)phenyl)piperidine], for which the half-maximal activity concentration (AC50) is at most 2 µM.
On the same count and under the same terms, in the case of `Cc1ccc(S(=O)(=O)Nc2ccccc2N2CCC(c3ccccn3)CC2)cc1` [Compound A-92, 4-methyl-N-{2-[4-(pyridin-2-yl)piperidin-1-yl]phenyl}benzene-1-sulfonamide] it was at most 2 µM; in that of `Cc1ccc(S(=O)(=O)Nc2ccccc2N2CCC3(CC2)COC(C)(C)C3)cc1` [Compound A-662, N-(2-{3,3-dimethyl-2-oxa-8-azaspiro[4.5]decan-8-yl}phenyl)-4-methylbenzene-1-sulfonamide], at most 2 µM.
`CC1(C)CC2(CCN(c3ccccc3NS(=O)(=O)c3ccc(C4CC4(F)F)cc3)CC2)CO1` (centres unmarked) [Compound A-718, 4-(2,2-difluorocyclopropyl)-N-(2-{3,3-dimethyl-2-oxa-8-azaspiro[4.5]decan-8-yl}phenyl)benzene-1-sulfonamide] displayed a concentration at half-maximal activity (AC50) of at most 2 µM.
Same read-out and setting: then `COCC1(C)CCN(c2ccccc2NS(=O)(=O)c2cccc(C(C)(C)OC)c2)CC1` [Compound A-633, N-{2-[4-(methoxymethyl)-4-methylpiperidin-1-yl]phenyl}-3-(2-methoxypropan-2-yl)benzene-1-sulfonamide], with 2.01 to 8 µM.
The same measure, in the same setting: in the case of `CN(C)S(=O)(=O)c1ccc(S(=O)(=O)Nc2cc(Cl)nnc2N2CCC(c3ccc(Cl)cc3F)CC2)cc1` [Compound A-129, N4-{6-chloro-3-[4-(4-chloro-2-fluorophenyl)piperidin-1-yl]pyridazin-4-yl}-N1,N1-dimethylbenzene-1,4-disulfonamide] it was at least 10 µM; in that of `CN(C)S(=O)(=O)c1ccc(S(=O)(=O)Nc2ccccc2N2CCN(C(=O)C3(C)CCCO3)CC2)cc1` (centres unmarked) [Compound A-476, N1,N1-dimethyl-N4-{2-[4-(2-methyloxolane-2-carbonyl)piperazin-1-yl]phenyl}benzene-1,4-disulfonamide], 2.01 to 8 µM; in that of `COc1ccc(S(=O)(=O)Nc2nccnc2N2CCN(c3ncc(Cl)cc3F)CC2)cc1` [Compound A-130, N-{3-[4-(5-chloro-3-fluoropyridin-2-yl)piperazin-1-yl]pyrazin-2-yl}-4-methoxybenzene-1-sulfonamide], at least 10 µM.
The same measure, in the same setting: in the case of `COC(C)(C)c1ccc(S(=O)(=O)Nc2ccccc2N2CCC3(CC2)COC(C)(C)C3)cc1` [Compound A-656, N-(2-{3,3-dimethyl-2-oxa-8-azaspiro[4.5]decan-8-yl}phenyl)-4-(2-methoxypropan-2-yl)benzene-1-sulfonamide] it was 2.01 to 8 µM.
`Cc1ccc(CS(=O)(=O)Nc2ccccc2N2CCC3(CC2)COC(C)(C)C3)cc1C` [Compound A-663, N-(2-{3,3-dimethyl-2-oxa-8-azaspiro[4.5]decan-8-yl}phenyl)-1-(3,4-dimethylphenyl)methanesulfonamide] returned a concentration at half-maximal activity (AC50) of at most 2 µM.
In turn, `COc1ccc(S(=O)(=O)Nc2ccncc2N2CCC(c3ncc(F)cc3F)CC2)cc1` [Compound A-192, N-{3-[4-(3,5-difluoropyridin-2-yl)piperidin-1-yl]pyridin-4-yl}-4-methoxybenzene-1-sulfonamide] returned an AC50 of at least 10 µM.
Still for that read-out and setting: then `CN1CCc2ccccc2C12CCN(c1ccccc1NS(=O)(=O)c1ccc(S(C)(=O)=O)cc1)CC2` [Compound A-441, N-(2-(2-methyl-3,4-dihydro-2H-spiro[isoquinoline-1,4′-piperidin]-1′-yl)phenyl)-4-(methylsulfonyl)benzenesulfonamide], with 2.01 to 8 µM; and `O=S(=O)(Nc1cccc(N2CCC(c3ccc(Cl)cc3F)CC2)c1)c1cccc(F)c1` [Compound A-122, N-{3-[4-(4-chloro-2-fluorophenyl)piperidin-1-yl]phenyl}-3-fluorobenzene-1-sulfonamide], with at least 10 µM.

A word on the AC50: it is the concentration giving half of the maximal activity seen.
